Results from US20140057941A1, “Methods For Increasing Mean Corpuscular Volume” (priority 2011, published 2014).

Assays:
Type in all cases: in vivo
[1] = system: human subjects with end-stage renal disease; test: Mean hemoglobin levels in human subjects with end-stage renal disease, 6 week treatment; settings: TIW; Compound A 1.5 mg/kg and 2.0 mg/kg or epoetin alfa; ESRD
[2] = system: human subjects with end-stage renal disease; test: Mean corpuscular volume (MCV) in human subjects with end-stage renal disease on hemodialysis, 6 weeks TIW, no IV iron; settings: ESRD; for Mean Change from Baseline MCV at Day 43 (6 weeks) of Treatment: no IV iron; for MCV response following administration for six weeks (Table 1, in words): TIW for 6 weeks, Compound A 1.0, 1.5, 2.0 mg/kg or standard of care epoetin alfa; for Change from baseline of mean MCV over time during the 6 week treatment period (FIG. 1): TIW, Compound A 1.0, 1.5 or 2.0 mg/kg or epoetin alfa
Method: The effect of a compound of the present invention on MCV was determined in human subjects with end-stage renal disease as follows. Subjects had been receiving stable maintenance hemodialysis for at least 4 months prior to the initiation of the present study. Additionally, subjects had been maintained on standard of care stable doses of epoetin alfa for the treatment of anemia prior to initiation of the study described herein.
In order to examine differences in the MCV response in subjects treated with a compound of the invention compared to the MCV response in subjects treated with epoetin alpha (the current standard of care), all IV iron supplementation was halted two weeks prior to treatment initiation. Administration of oral iron was allowed.
[…] Baseline MCV levels were determined prior to treatment (mean of two screening period measurements with the Day 1 measurement). MCV levels were measured weekly throughout the 6-week study period.

[3] = system: human patients, particularly having chronic kidney disease; test: Overall safety and efficacy of tested doses in human patients; settings: 0.7 to 2.5 mg/kg administered TIW, BIW, or QW
Excerpt: In particular embodiments, the present invention provides an efficacious therapeutic compound for treating a human subject having reduced mean corpuscular volume (MCV). In one embodiment, the invention comprises the compound [(4-hydroxy-1-methyl-7-phenoxy-isoquinoline-3-carbonyl)-amino]-acetic acid for use in methods of increasing mean corpuscular volume (MCV) in a human subject.

[4] = system: human subjects with stage 3 or stage 4 chronic kidney disease; test: MCV in stage 3 and stage 4 chronic kidney disease patients not receiving dialysis, fixed dose, 17 weeks; settings: fixed dose 50 mg or 100 mg twice weekly for 17 weeks, dose adjustments from week 5; stage 3/4 CKD not on dialysis
Method: In another set of experiments, the effect of compound of the present invention on MCV was determined in human subjects with stage 3 and stage 4 chronic kidney disease patients (eGFR<60 ml/min) as follows. Subjects with stage 3 or stage 4 chronic kidney disease not receiving dialysis were administered Compound A at a fixed dose of either 50 mg or 100 mg twice weekly for a period of 17 weeks. Dose adjustments were permitted from week 5 onward to correct and maintain subjects to a target hemoglobin range; however, doses were not allowed to exceed 2.2 mg/kg per dose. MCV values were measured weekly.

[5] = system: human subjects with stage 3 or stage 4 chronic kidney disease; test: MCV in stage 3 and stage 4 chronic kidney disease patients, 4 weeks; settings: stage 3/4 CKD
Method: In another series of experiments, the effect of a compound of the present invention on MCV was determined in stage 3 and stage 4 chronic kidney disease patients ([…]) as follows. Subjects with stage 3 or stage 4 chronic kidney disease were administered placebo or Compound A (1.5 mg/kg or 2.0 mg/kg) twice or thrice weekly for 4 weeks. MCV values were measured weekly.

| Molecule | Changes in mean hemoglobin levels during the 6 week treatment period (FIG. 2) [1] | Mean Change from Baseline MCV at Day 43 (6 weeks) of Treatment ([2]; 1 mg/kg TIW, N = 10) | Mean increase in MCV over baseline after 6 weeks of treatment ([2]; 1.3 mg/kg TIW, N=5) [fL] | Mean Change from Baseline MCV at Day 43 (6 weeks) of Treatment ([2]; 1.5 mg/kg TIW, N = 9) | Mean increase in MCV over baseline after 6 weeks of treatment ([2]; 1.8 mg/kg TIW, N=12) [fL] | Mean Change from Baseline MCV at Day 43 (6 weeks) of Treatment ([2]; 2.0 mg/kg TIW, N = 9) | MCV response following administration for six weeks (Table 1, in words) [2] | Change from baseline of mean MCV over time during the 6 week treatment period (FIG. 1) [2] | Efficacy of tested doses (increases in MCV) [3] | Safety of tested doses [3] | Mean MCV over time (FIG. 5) [4] | Mean MCV over time (FIG. 3) ([5]; 1.5 mg/kg or 2.0 mg/kg twice or thrice weekly for 4 weeks) | Mean change from baseline MCV at Day 22 (FIG. 4) ([5]; 1.5 mg/kg or 2.0 mg/kg twice or thrice weekly, increase) | Mean Change from Baseline MCV at Day 43 (6 weeks) of Treatment ([2]; standard of care doses TIW, N = 10) [fL] |
| --- | --- | --- | --- | --- | --- | --- | --- | --- | --- | --- | --- | --- | --- | --- |
| Cc1nc(C(=O)NCC(=O)O)c(O)c2ccc(Oc3ccccc3)cc12 [Compound A, [(4 hydroxy-1-methyl-7-phenoxy-isoquinoline-3-carbonyl)-amino]-acetic acid] | time-dependent increase in mean hemoglobin levels | +0.90 fL | 2.03 | +1.46 fL | 2.27 | +2.50 fL | MCV increased in a dose-dependent manner | resulted in an increase in mean MCV over time | effective | safe | mean MCV initially increased and then stabilized over time | mean MCV increased over time | greater than 3 fL |  |
| Epoetin alfa: erythropoiesis-stimulating agent; current standard of care for anemia, used as control [reference compound] | did not result in an increase hemoglobin levels |  |  |  |  |  | showed decreases in MCV | no increase in mean MCV occurred |  |  |  |  |  | -0.12 |
